Laboratory results reported in patent publication US4959368A, “Therapeutic agent for neurological diseases” (Mitsui Petrochemical Industries Ltd., priority 1986, dated 1990).

Assays:
mice = assay: Acute toxicity, mouse; format: in vivo; conditions: 24 hours
Protocol: (§1) The acute toxicity of the compounds of the invention was examined by the following method.
(§2) Male ddy-strain 5-week old mice and male Wistar-strain 8 week old rats, five per group, were used as experimental animals. Each of the compounds was dissolved in saline and administered perorally, and the toxicity of the compound was assessed 24 hours after the administration.

Acute toxicity, mouse = format: in vivo; conditions: in vivo, po, Table 6, p.o., read-out: Presumed LD50
Protocol: as §1, §2

[1] = system: mouse neuroblastoma cell line neuro-2a; assay: Activity on cell line neuro-2a (simple method); format: cell-based; conditions: Table 2 neuro-2a Run No. 1, control 7.9
Protocol: The biological activities in vitro of the compounds of formula (I) on cells of the nervous system were tested. The cells tested were human neuroblastoma cell line GOTO [see Sekiguchi, M., Oota, T., Sakakibara, K., Inui, N. & Fujii, G., Japan. J. Exp. Med., 49, 67-83 (1979)], and neuroblastoma cell line NB-1 [see Miyake, S., Shimo, Y., Kitamura, T., Nojyo, Y., Nakamura, T., Imkashuku, S. and Abe, T., The Autonomic Nervous System, 10, 115-120 (1973)], and mouse neuroblastoma cell line neuro-2a (Dainippon Pharmaceutical Co., Ltd.) which have been established as the cells of the nervous system. The above neuve cells were grown in an incubator at 37° C. in the presence of 5% carbon dioxide gas exponentially, and then cultivated for a certain period of time together with the compounds of formula (I). […]
(§3) As a simple method of evaluation, the number of cells have neurites with a length equal to, or larger than, the long diameter of the cell was divided by the total number of cells.

[2] = system: human neuroblastoma cell line GOTO; assay: Activity on neuroblastoma cell line GOTO (cell number, number and length of neurites); format: cell-based; conditions: for Number of cells: control 3.17
How it was run: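 GOTO cells were cultured 1–2 days at 37 °C, 5% CO2, then switched to serum-free RPMI/MEM (1:1) with compounds in PBS at various concentrations for 24 h. Living cells were counted by erythrosine exclusion (3–6 dishes); neurite number and length per cell were measured from photographs.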

rats = assay: Acute toxicity, rat; format: in vivo; conditions: 24 hours
Protocol: as §1, §2

Acute toxicity, rat = format: in vivo; conditions: in vivo, po, Table 6, p.o., read-out: Presumed LD50
Protocol: as §1, §2

[3] = system: human neuroblastoma cell line GOTO; assay: Activity on cell line GOTO (simple method); format: cell-based; conditions: Table 2 GOTO Run No. 2; 10 μg/ml; control 8.4
Protocol: The biological activities in vitro of the compounds of formula (I) on cells of the nervous system were tested. The cells tested were human neuroblastoma cell line GOTO [see Sekiguchi, M., Oota, T., Sakakibara, K., Inui, N. & Fujii, G., Japan. J. Exp. Med., 49, 67-83 (1979)], and neuroblastoma cell line NB-1 [see Miyake, S., Shimo, Y., Kitamura, T., Nojyo, Y., Nakamura, T., Imkashuku, S. and Abe, T., The Autonomic Nervous System, 10, 115-120 (1973)], and mouse neuroblastoma cell line neuro-2a (Dainippon Pharmaceutical Co., Ltd.) which have been established as the cells of the nervous system. The above neuve cells were grown in an incubator at 37° C. in the presence of 5% carbon dioxide gas exponentially, and then cultivated for a certain period of time together with the compounds of formula (I).
A culture medium [composed of 45% of RPMI 1640 medium, 45% modified Eagle's medium (MEM) and 10% of fetal calf serum (FCS) and containing penicillin G sodium (100 units/ml) and streptomycin sulfate (100 microgram/ml)] containing neurobalstoma cell line GOTO in the logarithmic growth period was poured in an amount of 2 ml each into polystyrene dishes (35 mm; made by Corning Co.) so that the cell concentration was 2 to 6×10^4 cells per dish, and the cells were cultured for 1 to 2 days in a carbon dioxide gas incubator containing 5% of carbon dioxide gas in air at 37° C. Then, the culture fluid was removed, and 2 ml of a fresh serum-free culture fluid (consisting of 50% of RPMI medium and 50% of MEM medium and containing penicillin G sodium and streptomycin sulfate in the same amounts as above) was added. At the same time, a presterilized PBS solution (phosphate buffered saline) of each of the test compounds in various concentrations was added to each of the dishes. After culturing for 24 hours, the number of living cells was counted. Furthermore, the culture was photographed, and from the photos, the number and length of neurites per cell were measured. The numer of living cells was counted for 3 to 6 dishes by resistance to staining with erythrosine dye. The number and length of the neurites were measured with regard to 6 photos (more than 200 cells per photo).
as §3

## CCn1ccc2nc(N3CCNCC3)ncc2c1=O [Compound 710]
mice; Table 6, 300 mg/kg p.o.
  Number of dead animals/number of test animals: 0/5
mice; Table 6, 500 mg/kg p.o.
  Number of dead animals/number of test animals: 3/5
mice; Table 6, 1000 mg/kg p.o.
  Number of dead animals/number of test animals: 5/5
Acute toxicity, mouse
  LD50 at 24 h: 300 to 550 mg/kg
[1]; 1 μg/ml
  Average of the proportions: 15.97%
[1]; 10 μg/ml
  Average of the proportions: 13.70%
[2]; Table 1 Run No. 1, 10 μg/ml, control 2.09 ± 0.61
  Number of neurites/cell (mean ± S.D.): 2.12 ± 0.51 neurites/cell
[2]; Table 1 Run No. 1, 10 μg/ml, control 14.34 ± 0.72
  Number of cells (mean ± S.E.): 19.18 ± 0.67 × 10^4 /dish
[2]; Table 1 Run No. 1, 10 μg/ml, control 70.10 ± 43.03
  Length of neurites (mean ± S.D.): 86.10 ± 50.70 μm/cell
[2]; Table 1 Run No. 1, 100 μg/ml, control 2.09 ± 0.61
  Number of neurites/cell (mean ± S.D.): 1.71 ± 0.59 neurites/cell
[2]; Table 1 Run No. 1, 100 μg/ml, control 14.34 ± 0.72
  Number of cells (mean ± S.E.): 11.92 ± 0.66 × 10^4 /dish
[2]; Table 1 Run No. 1, 100 μg/ml, control 70.10 ± 43.03
  Length of neurites (mean ± S.D.): 47.34 ± 35.11 μm/cell
[2]; Table 1 Run No. 2, 1 μg/ml, control 2.06 ± 0.60
  Number of neurites/cell (mean ± S.D.): 2.14 ± 0.63 neurites/cell
[2]; Table 1 Run No. 2, 1 μg/ml, control 12.30 ± 1.48
  Number of cells (mean ± S.E.): 17.44 ± 1.50 × 10^4 /dish
[2]; Table 1 Run No. 2, 1 μg/ml, control 55.00 ± 37.26
  Length of neurites (mean ± S.D.): 73.74 ± 43.49 μm/cell
[2]; Table 1 Run No. 2, 10 μg/ml, control 2.06 ± 0.60
  Number of neurites/cell (mean ± S.D.): 2.09 ± 0.62 neurites/cell
[2]; Table 1 Run No. 2, 10 μg/ml, control 12.30 ± 1.48
  Number of cells (mean ± S.E.): 15.15 ± 2.26 × 10^4 /dish
[2]; Table 1 Run No. 2, 10 μg/ml, control 55.00 ± 37.26
  Length of neurites (mean ± S.D.): 62.74 ± 35.64 μm/cell
[2]; Table 1 Run No. 3, 0.0 μg/ml (so in the source)
  Number of cells: 3.66 × 10^4 /dish
[2]; Table 1 Run No. 3, 1 μg/ml, control 1.94 ± 0.69, all *P <0.01
  Number of neurites/cell (mean ± S.D.): 2.17 ± 0.79 neurites/cell
[2]; Table 1 Run No. 3, 1 μg/ml
  Number of cells: 3.92 × 10^4 /dish
[2]; Table 1 Run No. 3, 1 μg/ml, control 45.13 ± 22.71, all *P <0.01
  Length of neurites (mean ± S.D.): 60.93 ± 23.66 μm/cell
rats; Table 6, 300 mg/kg p.o.
  Number of dead animals/number of test animals: 1/5
rats; Table 6, 500 mg/kg p.o.
  Number of dead animals/number of test animals: 2/5
rats; Table 6, 1000 mg/kg p.o.
  Number of dead animals/number of test animals: 5/5
Acute toxicity, rat
  LD50 at 24 h: 550 to 1000 mg/kg
[3]
  Average of the proportions: 15.02%
